Data from patent US20070003976A1, “Car ligand-binding domain polypeptide co-crystallized with a ligand, and methods of designing ligands that modulate car activity” (SMITHKLINE BEECHAM CORPORATION, priority 2003, published 2007).

Biological target: T1, human CAR LBD protein (Homo sapiens, UniProt Q14994)
T1 construct: made in house; host or cells: E. coli BL21 (DE3), pRSETA vector
T1 sequence (Q14994 103-348 isoform Q14994-2): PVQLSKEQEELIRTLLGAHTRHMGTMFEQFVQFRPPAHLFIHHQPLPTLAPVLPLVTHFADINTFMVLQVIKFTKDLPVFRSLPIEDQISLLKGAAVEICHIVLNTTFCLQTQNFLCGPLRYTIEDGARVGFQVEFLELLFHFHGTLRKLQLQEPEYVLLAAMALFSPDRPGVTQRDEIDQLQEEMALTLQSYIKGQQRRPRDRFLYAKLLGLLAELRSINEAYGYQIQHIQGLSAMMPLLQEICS
Assay: Fluorescence Resonance Energy Transfer (FRET) Ligand Sensing Assay: CAR LBD / SRC-1 coactivator peptide interaction
Format: biochemical
Procedure: Screening of synthetic compound libraries with the purified CAR LBD protein by a Fluorescence Resonance Energy Transfer (FRET) Ligand Sensing Assay (Parks et al., 1999) was conducted to identify molecules that alter the basal interaction between a coactivator peptide and the CAR LBD protein. Briefly, the purified human CAR LBD protein was biotinylated and labeled with streptavidin-conjugated fluorophore allophycocyanin. The labeled CAR LBD protein was incubated with a test compound and with a peptide that included the second LXXLL binding motif of the nuclear coactivator SRC-1 (GenBank Accession No. U59302; amino acids 676-700) that was labeled with europium chelate. Data were collected with a WALLAC VICTOR™ fluorescence reader (available from PerkinElmer Life Sciences Inc., Boston, Mass., United States of America) in a time resolved mode and the fluorescence ratio calculated.

With `NC(=O)c1ccc2nc(NC(c3ccccc3)c3ccccc3)n(CCc3ccccc3)c2c1` [Compound 1, 2-(benzhydrylamino)-1-(2-phenylethyl)-1H-benzimidazole-6-carboxamide] the EC50 (dose response curves with purified CAR LBD protein, reduction of basal CAR LBD/SRC-1 peptide FRET signal (inverse agonist)) was 0.015 µM and the “effect on basal fluorescent signal (CAR LBD/SRC-1 interaction)” value (screen of synthetic compound libraries, time resolved fluorescence ratio) was “inverse agonist molecule that reduces the basal fluorescent signal”.
